BindingDB's records for doi:10.1016/j.ejmech.2010.08.026 (Instituto De Parasitología Y Biomedicina …, 2010)

Target: T1, Purine nucleoside phosphorylase (Plasmodium falciparum, UniProt Q8T9Z7)
T1 sequence (Q8T9Z7 whole entry): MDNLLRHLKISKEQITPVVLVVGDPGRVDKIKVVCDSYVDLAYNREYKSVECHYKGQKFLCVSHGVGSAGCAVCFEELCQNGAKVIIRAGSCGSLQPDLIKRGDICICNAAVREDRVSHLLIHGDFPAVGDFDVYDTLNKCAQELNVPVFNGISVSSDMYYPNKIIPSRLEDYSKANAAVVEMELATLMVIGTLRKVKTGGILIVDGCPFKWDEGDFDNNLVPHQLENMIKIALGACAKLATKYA
Assay: Inhibition of Plasmodium falciparum PNP expressed in Escherichia coli BL21(DE3) cells by spectrophotometry

## O=c1[nH]c(O)c(Cc2ccccc2)c(=O)[nH]1 [5-benzylpyrimidine-2,4,6(1H,3H,5H)-trione]
  IC50: > 1000 µM
